{
  "source": "patent US20150175655A1",
  "about": "(priority 2012, published 2015)",
  "key": {"[1]": {"conditions": "rcm bond, Zhan 1B, DCE"}, "[2]": {"target": "T1, NS3 genotype 1b protease (Hepatitis C virus genotype 1b, UniProt Q9WMX2, E1202G)", "T1 construct": "Purified NS3 protease domain (amino acids 1-181) of the genotype 1b and 3a virus were generated as above; K3 hexahistidine tag (N); rTEV protease cleavage site (N); made in house; host or cells: E. coli BL21AI, pET28 vector p28-N6H-Tev-NS3(181)1b", "assay": "Ki determination, NS3 protease genotype 1b (fluorogenic depsipeptide substrate)", "type": "biochemical", "source_text": "The coding sequence of the genotype 1b (con-1 strain) HCV NS3 protease domain was PCR amplified from a plasmid encoding the I389luc-ubi-neo/NS3-3′/ET replicon (Reblikon, Mainz, Germany). The 5′-PCR primer was designed to encode an N-terminal K3 hexahistidine tag and to insert an in-frame recombinant Tobacco Etch virus (rTEV) protease cleavage site into the NS3 coding sequence. The resulting DNA fragment was cloned into the pET28 protein expression vector (Invitrogen, Carlsbad, Calif.) yielding the p28-N6H-Tev-NS3(181)1b.\nBL21AI bacteria (Invitrogen, Carlsbad, Calif.) were transformed with genotype 1b or 3 NS3 expression vectors and used to inoculate a 20 L fermentation vessel (Sartorius BBI System Inc., Bethlehem, Pa.), containing 18 L of fresh 2YT medium supplemented with 50 μg/mL kanamycin. When cell densities reached an OD600 of 1, the temperature of the cultures was reduced from 37° C. to 28° C. and induction was immediately initiated by the addition of 30 μM ZnSO4, 14 mM L-arabinose and 1 mM Isopropyl β-D-thiogalactoside (IPTG) final concentrations. Cells were harvested by centrifugation four hours post-induction and were stored as frozen pellets at −80° C. prior to NS3 protein purification.\nCell pellets were thawed and resuspended at 10 mL/g cells in lysis buffer containing 50 mM tris pH 7.6, 300 mM NaCl, 0.1% 3-[(3-cholamidopropyl)dimethylammonio]-1-propanesulfonate (CHAPS), 5% glycerol, and 2 mM β-mercaptoethanol. Cell suspensions were then sonicated, filtered through cheesecloth, and passed three times through a microfluidizer at 18,000 pounds/in^2. The resulting lysates were centrifuged at 15500 rpm for 45 minutes and supernatants were loaded onto a HisTrap HP column (GE Lifesciences) pre-equilibrated with five volumes of Ni buffer A (50 mM tris pH 7.6, 300 mM NaCl, 0.1% CHAPS, 5% glycerol, 2 mM β-mercaptoethanol, 50 mM imidazole-HCl). Proteins were eluted with a 0-100% gradient of Ni buffer A plus 500 mM imidazole-HCl and fractions were collected and pooled. The HisTrap pool was diluted 1:10 with SP-A buffer (50 mM tris pH 7.0, 10% glycerol, 2 mM dithiothreitol (DTT)) and loaded onto a HiTrap SP-HP column (GE Lifesciences) equilibrated with SP-A buffer. NS3 protease was eluted with a 0-100% SP-B buffer (SP-A buffer plus 1 M NaCl) gradient. Concentrated pools of NS3-containing SP fractions were aliquoted, snap frozen in liquid nitrogen and stored at −80° C.\nPurified NS3 protease domain (amino acids 1-181) of the genotype 1b and 3a virus were generated as above.\nReactions were run at room temperature in buffer consisting of 50 mM HEPES, 40% glycerol, 0.05% Triton X-100, 10 mM DTT, and 10% DMSO. The final assay solutions contained 50 pM NS3 genotype 1b protease or 200 pM genotype 3a protease, 20 μM NS4A peptide, and 4 μM substrate (genotype 1 b) or 2 μM substrate (genotype 3a). Inhibitor concentrations varied from 100 nM to 5 pM in 3-fold dilutions, and no-inhibitor controls were included.\nCompound dilutions were made in DMSO at 20× final concentration. Reaction mixtures were prepared in 96-well assay plates. A solution of enzyme and NS4A peptide in assay buffer (25 μL volume with both reagents at 4× final concentration) was mixed with 45 μL assay buffer and 5 μL of either inhibitor or DMSO, and pre-incubated at room temperature for 1 hour. The reaction was started by addition of 25 μL substrate solution at 4× final concentration. Plates were mixed vigorously for 5-10 seconds and reactions were allowed to proceed for 90 minutes. fluorescence was measured every 30 s between 90 and 120 minutes reaction time using a Tecan InfiniTe M1000 or PerkinElmer Envision multimode plate reader with an excitation wavelength of 340 nm and an emission wavelength of 490 nm.\nTo determine the K, rates were plotted as a function of inhibitor concentration, and the data were fit with equation 1 (Morrison, J. F., Biochimica et Biophysica Acta 1969, 185, 269-286) to calculate Ki^app using GraphPad Prism 5."}, "[3]": {"system": "genotype 1a (H77) wild-type transient HCV replicon in Huh-7-derived cells", "assay": "Transient-transfected HCV replicon EC50, genotype 1a wild type", "type": "cell-based", "conditions": "Hepatitis C virus; transient-transfected replicon genotype 1a wild type, 72 h; read-out: EC50 1A WT"}, "[4]": {"system": "genotype 1a transient HCV replicon, NS3/4a protease inhibitor resistant variant R155K, in Huh-7-derived cells", "assay": "Transient-transfected HCV replicon EC50, genotype 1a R155K", "type": "cell-based", "conditions": "Hepatitis C virus, 72 h, read-out: EC50 1A R155K"}, "[5]": {"system": "genotype 1b (Con1) wild-type transient HCV replicon in Huh-7-derived cells", "assay": "Transient-transfected HCV replicon EC50, genotype 1b wild type", "type": "cell-based", "conditions": "Hepatitis C virus; transient-transfected replicon genotype 1b wild type, 72 h; read-out: EC50 1B WT"}, "[6]": {"system": "genotype 1b transient HCV replicon, NS3/4a protease inhibitor resistant variant D168A, in Huh-7-derived cells", "assay": "Transient-transfected HCV replicon EC50, genotype 1b D168A", "type": "cell-based", "conditions": "Hepatitis C virus, 72 h, read-out: EC50 1B D168A"}, "[7]": {"target": "T2, NS3 genotype 3a protease (UniProt Q81258)", "T2 construct": "Purified NS3 protease domain (amino acids 1-181) of the genotype 1b and 3a virus were generated as above; fused on or other part: N-terminal hexahistidine tag and rTEV protease cleavage site (vector p28-N6H-Tev-NS3(181)3)", "T2 sequence (Q81258 1033-1663)": "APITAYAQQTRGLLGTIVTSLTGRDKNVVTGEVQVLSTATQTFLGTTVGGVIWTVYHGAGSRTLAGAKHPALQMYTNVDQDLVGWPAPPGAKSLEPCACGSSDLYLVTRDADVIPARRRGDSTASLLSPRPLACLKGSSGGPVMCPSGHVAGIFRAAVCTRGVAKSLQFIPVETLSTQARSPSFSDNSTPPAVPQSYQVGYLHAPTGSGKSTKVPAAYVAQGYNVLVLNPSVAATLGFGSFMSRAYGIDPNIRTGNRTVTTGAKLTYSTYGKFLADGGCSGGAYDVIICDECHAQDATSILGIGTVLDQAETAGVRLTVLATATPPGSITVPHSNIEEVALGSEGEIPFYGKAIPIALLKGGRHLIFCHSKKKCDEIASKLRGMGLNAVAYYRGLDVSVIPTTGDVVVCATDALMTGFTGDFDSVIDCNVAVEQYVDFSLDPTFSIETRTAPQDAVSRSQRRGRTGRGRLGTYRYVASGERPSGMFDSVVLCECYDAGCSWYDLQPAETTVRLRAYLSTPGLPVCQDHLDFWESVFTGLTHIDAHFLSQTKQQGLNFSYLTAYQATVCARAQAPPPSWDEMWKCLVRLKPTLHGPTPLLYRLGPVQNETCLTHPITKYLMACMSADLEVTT", "assay": "Ki determination, NS3 protease genotype 3a (fluorogenic depsipeptide substrate)", "type": "biochemical, hepatitis C virus", "conditions": "200 pM enzyme, 20 μM NS4A peptide, 2 μM substrate, read-out: Ki 3A", "summary_of_the_method": "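Refolded His-tagged NS3 protease domain (aa 1-181, genotype 3a) at 200 pM with 20 μM NS4A peptide was pre-incubated 1 h at RT with inhibitor (100 nM–5 pM, 3-fold), then 2 μM FRET depsipeptide substrate was added in HEPES/40% glycerol/10% DMSO buffer. Steady-state rates over 90-120 min (ex 340/em 490 nm) versus inhibitor concentration gave Ki.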"}},
  "note": "Where two headings read alike, the source gives them in different places.",
  "data": [
    {"compound": "COc1ccc2nc3c(nc2c1)O[C@H]1CN(C(=O)[C@H](C(C)(C)C)NC(=O)O[C@@H]2CCC[C@H]2CCCC=C3)[C@H](C(=O)OC(C)(C)C)[C@@H]1C", "values": [
      {"measurement": "ring closure, yield of all isomers", "setting": "[1]; from C=CCCC[C@@H]1CCC[C@H]1OC(=O)N[C@H](C(=O)N1C[C@H](Oc2nc3cc(OC)ccc3nc2C=C)[C@@H](C)[C@H]1C(=O)OC(C)(C)C)C(C)(C)C, 4.97 mM, 83.0 °C, […]", "result": 78.5, "unit": "%"}
    ]},
    {"compound": "COc1ccc2nc3c(nc2c1)O[C@H]1CN(C(=O)[C@H](C2(C)CCCC2)NC(=O)O[C@@H]2C[C@H]2CCCC=C3)[C@H](C(=O)OC(C)(C)C)[C@@H]1C", "values": [
      {"measurement": "ring closure, yield of all isomers", "setting": "[1]; from C=CCCC[C@@H]1C[C@H]1OC(=O)N[C@H](C(=O)N1C[C@H](Oc2nc3cc(OC)ccc3nc2C=C)[C@@H](C)[C@H]1C(=O)OC(C)(C)C)C1(C)CCCC1, 5.03 mM, 83.0 °C, […]", "result": 78, "unit": "%"}
    ]},
    {"compound": "CC[C@@H]1[C@@H]2CN(C(=O)[C@H](C3CCCCC3)NC(=O)O[C@@H]3C[C@H]3CCCCCc3nc4ccc(OC)cc4nc3O2)[C@@H]1C(=O)N[C@]1(C(=O)NS(=O)(=O)C2(C)CC2)C[C@H]1C(F)F", "note": "[Example 16, (1aR,5S,8S,9S,10R,22aR)-5-cyclohexyl-N-[(1R,2R)-2-(difluoromethyl)-1-{[(1-methylcyclopropyl)sulfonyl]carbamoyl}cyclopropyl]-9-ethyl-14-methoxy-3,6-dioxo-1,1a,3,4,5,6,9,10,18,19,20,21,22,22a-tetradecahydro-8H-7,10-methanocyclopropa[18,19][1,10,3,6]dioxadiazacyclononadecino[11,12-b]quinoxaline-8-carboxamide]", "values": [
      {"measurement": "Ki", "setting": "[2]", "result": 0.09, "unit": "nM"},
      {"measurement": "EC50", "setting": "[3]", "result": 9.4, "unit": "nM"},
      {"measurement": "EC50", "setting": "[4]", "result": 22, "unit": "nM"},
      {"measurement": "EC50", "setting": "[5]", "result": 5.8, "unit": "nM"},
      {"measurement": "EC50", "setting": "[6]", "result": 61, "unit": "nM"}
    ]},
    {"compound": "CC[C@@H]1[C@@H]2CN(C(=O)[C@H](C(C)(C)C)NC(=O)O[C@@H]3C[C@H]3CC/C=C/C(F)(F)c3nc4ccc(C#N)cc4nc3O2)[C@@H]1C(=O)N[C@]1(C(=O)NS(=O)(=O)C2(C)CC2)C[C@H]1C(F)F", "note": "[Example 84, (1aR,5S,8S,9S,10R,19E,22aR)-5-tert-butyl-14-cyano-N-[(1R,2R)-2-(difluoromethyl)-1-{[(1-methylcyclopropyl)sulfonyl]carbamoyl}cyclopropyl]-9-ethyl-18,18-difluoro-3,6-dioxo-1,1a,3,4,5,6,9,10,18,21,22,22a-dodecahydro-8H-7,10-methanocyclopropa[18,19][1,10,3,6]dioxadiazacyclononadecino[11,12-b]quinoxaline-8-carboxamide]", "values": [
      {"measurement": "Ki", "setting": "[2]", "result": 0.04, "unit": "nM"},
      {"measurement": "Ki", "setting": "[7]", "result": 0.08, "unit": "nM"}
    ]},
    {"compound": "COc1ccc2nc3c(nc2c1)O[C@H]1CN(C(=O)[C@H](C(C)(C)C)NC(=O)O[C@@H]2C[C@H]2CCCCC3)[C@H](C(=O)N[C@]2(C(=O)NS(=O)(=O)C3(C)CC3)C[C@H]2C(F)F)[C@@H]1C", "note": "[Example 18, (1aR,5S,8S,9S,10R,22aR)-5-tert-butyl-N-[(1R,2R)-2-(difluoromethyl)-1-{[(1-methylcyclopropyl)sulfonyl]carbamoyl}cyclopropyl]-14-methoxy-9-methyl-3,6-dioxo-1,1a,3,4,5,6,9,10,18,19,20,21,22,22a-tetradecahydro-8H-7,10-methanocyclopropa[18,19][1,10,3,6]dioxadiazacyclononadecino[11,12-b]quinoxaline-8-carboxamide]", "values": [
      {"measurement": "EC50", "setting": "[3]", "result": 2.3, "unit": "nM"},
      {"measurement": "EC50", "setting": "[5]", "result": 1.2, "unit": "nM"},
      {"measurement": "EC50", "setting": "[6]", "result": 24, "unit": "nM"}
    ]},
    {"compound": "CCC[C@@H]1[C@@H]2CN(C(=O)[C@H](C(C)(C)C)NC(=O)O[C@@H]3C[C@H]3CCCC=Cc3nc4ccc(OC)cc4nc3O2)[C@@H]1C(=O)OC(C)(C)C", "values": [
      {"measurement": "ring closure, yield of all isomers", "setting": "[1]; from C=CCCC[C@@H]1C[C@H]1OC(=O)N[C@H](C(=O)N1C[C@H](Oc2nc3cc(OC)ccc3nc2C=C)[C@@H](CCC)[C@H]1C(=O)OC(C)(C)C)C(C)(C)C, 5.0 mM, 100.0 °C, 1.0 h", "result": 80.7, "unit": "%"}
    ]},
    {"compound": "CC[C@@H]1[C@@H]2CN(C(=O)[C@H](C(C)(C)C)NC(=O)O[C@@H]3[C@H]4CC[C@H](C4)[C@H]3CCCC=Cc3nc4ccc(OC)cc4nc3O2)[C@@H]1C(=O)OC(C)(C)C", "values": [
      {"measurement": "ring closure, yield of all isomers", "setting": "[1]; from C=CCCCC1C2CCC(C2)C1OC(=O)N[C@H](C(=O)N1C[C@H](Oc2nc3cc(OC)ccc3nc2C=C)[C@@H](CC)[C@H]1C(=O)OC(C)(C)C)C(C)(C)C, 4.0 mM, 100.0 °C, 0.75 h", "result": 45.2, "unit": "%"}
    ]},
    {"compound": "CC[C@@H]1[C@@H]2CN(C(=O)[C@H](C(C)(C)C)NC(=O)O[C@@H]3C[C@H]3CCCCC(F)(F)c3nc4ccc(OC)cc4nc3O2)[C@@H]1C(=O)N[C@]1(C(=O)NS(=O)(=O)C2(C)CC2)C[C@H]1C(F)F", "note": "[Example 17, (1aR,5S,8S,9S,10R,22aR)-5-tert-butyl-N-[(1R,2R)-2-(difluoromethyl)-1-{[(1-methylcyclopropyl)sulfonyl]carbamoyl}cyclopropyl]-9-ethyl-18,18-difluoro-14-methoxy-3,6-dioxo-1,1a,3,4,5,6,9,10,18,19,20,21,22,22a-tetradecahydro-8H-7,10-methanocyclopropa[18,19][1,10,3,6]dioxadiazacyclononadecino[11,12-b]quinoxaline-8-carboxamide]", "values": [
      {"measurement": "Ki", "setting": "[2]", "result": 0.04, "unit": "nM"}
    ]}
  ]
}
